The values that follow come from PubChem BioAssay (NCI).

SMILES strings stand for the structures.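 Assay format: 96-well plates, 48-hour exposure. GI50: concentration for 50% inhibition of growth. The concentration for full growth arrest is given as TGI.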

Some test systems named below: K-562 leukemia; OVCAR-8 ovarian; SF-539 CNS; NCI-H226 lung; M14 melanoma; RPMI-8226 leukemia; BT-549 breast; MDA-MB-435; UACC-257 melanoma; HCC-2998 colon.
What all share (experiment): inhibition of tumour cell growth, NCI panel, 48 h

`CC(C)C[CH2][Ge]([CH2]CC(C)C)([CH2]CC(C)C)[CH2]CC(C)C`: the GI50 was greater than 100 µM with K-562 leukemia; greater than 100 µM with OVCAR-8 ovarian; greater than 100 µM in the experiment with SF-539 CNS; greater than 100 µM in the experiment on NCI-H226 lung; greater than 100000 nM in the experiment with M14 melanoma; greater than 100000 nM with RPMI-8226 leukemia. Further, the GI50 in the experiment with BT-549 breast was greater than 100000 nM; in the experiment with MDA-MB-435, greater than 100000 nM; in the experiment on UACC-257 melanoma, greater than 100 µM. The TGI in the experiment with K-562 leukemia, in the experiment on OVCAR-8 ovarian, in the experiment on SF-539 CNS, with NCI-H226 lung, in the experiment on M14 melanoma and in the experiment on RPMI-8226 leukemia was greater than 100 µM in each case. The TGI with BT-549 breast, with MDA-MB-435 and in the experiment with UACC-257 melanoma was greater than 100 µM each time.
In the case of `COc1ccc(-n2cc(-c3cc(OC)c(OC)c(OC)c3)[nH]c2=S)cc1Cl`, the GI50 in the experiment with K-562 leukemia was greater than 100 µM; in the experiment with OVCAR-8 ovarian, 50.2 µM; with SF-539 CNS it was 18.4 µM; with NCI-H226 lung, 27.1 µM; in the experiment with RPMI-8226 leukemia it was 5140 nM; in the experiment with HCC-2998 colon it was 39700 nM. Besides, the GI50 with BT-549 breast was 10300 nM; in the experiment with MDA-MB-435, greater than 100000 nM; with UACC-257 melanoma, greater than 100 µM. Besides, the TGI was greater than 100 µM in the experiment with K-562 leukemia; greater than 100 µM in the experiment on OVCAR-8 ovarian; 48.8 µM in the experiment on SF-539 CNS; greater than 100 µM in the experiment with NCI-H226 lung; greater than 100 µM in the experiment with RPMI-8226 leukemia; greater than 100 µM in the experiment on HCC-2998 colon. Further, the results for the TGI in the experiment with BT-549 breast, in the experiment on MDA-MB-435 and with UACC-257 melanoma were 31.3 µM, greater than 100 µM and greater than 100 µM, respectively.
As to `Cc1cn([C@H]2C[C@H](O)[C@@H](CO)O2)c(=O)nc1N`, the TGI in the experiment on K-562 leukemia, in the experiment with OVCAR-8 ovarian, with SF-539 CNS, with NCI-H226 lung, with M14 melanoma and in the experiment with RPMI-8226 leukemia was greater than 100 µM in each case. The TGI in the experiment on BT-549 breast, in the experiment on MDA-MB-435 and in the experiment on UACC-257 melanoma was greater than 100 µM throughout.
For the compound `O=C(Nc1ccc(Nc2ccncc2)cc1)c1ccc(Nc2ccnc3ccc([N+](=O)[O-])cc23)cc1[N+](=O)[O-]`, the GI50 with K-562 leukemia is 36.4 µM; in the experiment with OVCAR-8 ovarian it was 13 µM; in the experiment with SF-539 CNS it was 2.98 µM; with NCI-H226 lung, 37.5 µM; in the experiment on M14 melanoma, 21900 nM; in the experiment on RPMI-8226 leukemia, 12600 nM. For the same compound, the GI50 in the experiment on HCC-2998 colon is 32900 nM; in the experiment on BT-549 breast it was greater than 78500 nM; in the experiment with MDA-MB-435 it was 23300 nM; with UACC-257 melanoma it was 11.3 µM. Besides, the TGI was greater than 100 µM with K-562 leukemia; 45.2 µM with OVCAR-8 ovarian; 11.2 µM with SF-539 CNS; greater than 93.9 µM in the experiment on NCI-H226 lung; greater than 100 µM in the experiment with M14 melanoma; 55.3 µM in the experiment on RPMI-8226 leukemia. The TGI in the experiment with HCC-2998 colon was greater than 100 µM; in the experiment with BT-549 breast, greater than 100 µM; in the experiment with MDA-MB-435, greater than 100 µM; in the experiment on UACC-257 melanoma it was 29.5 µM.
Regarding `CCSc1ccc([C@@H]2[C@@H](N)C(=O)N2c2cc(OC)c(OC)c(OC)c2)cc1`, the GI50 with K-562 leukemia was 0.0359 µM; in the experiment on OVCAR-8 ovarian, 0.176 µM; in the experiment on NCI-H226 lung it was 79 µM; with M14 melanoma, 45.6 nM; in the experiment on RPMI-8226 leukemia it was 86.2 nM; in the experiment on HCC-2998 colon it was 755 nM. Besides, the GI50 is 59.2 nM with BT-549 breast, 27.7 nM with MDA-MB-435 and greater than 100 µM with UACC-257 melanoma. Further, the TGI with K-562 leukemia is greater than 100 µM; with OVCAR-8 ovarian, greater than 100 µM; in the experiment on NCI-H226 lung, greater than 100 µM; in the experiment with M14 melanoma it was greater than 100 µM; in the experiment on RPMI-8226 leukemia it was 46.9 µM; with HCC-2998 colon it was greater than 100 µM. The TGI is greater than 100 µM in the experiment with BT-549 breast, 0.102 µM in the experiment with MDA-MB-435 and greater than 100 µM with UACC-257 melanoma.
`O=C(NO)c1ccc(Cn2c(=O)n(-c3ccccc3)c(=O)c3ccccc32)cc1`: the GI50 in the experiment with K-562 leukemia is 0.942 µM; in the experiment with SF-539 CNS, 0.693 µM; with NCI-H226 lung, 1.32 µM; in the experiment with M14 melanoma, 539 nM; with RPMI-8226 leukemia it was 689 nM; in the experiment with HCC-2998 colon, 1310 nM. Besides, the GI50 in the experiment on BT-549 breast was 1550 nM; in the experiment with MDA-MB-435, 531 nM; with UACC-257 melanoma it was 0.811 µM. For the same compound, the TGI is greater than 100 µM in the experiment with K-562 leukemia; 2.86 µM with SF-539 CNS; 2.91 µM with NCI-H226 lung; 2.09 µM in the experiment with M14 melanoma; 93.5 µM in the experiment on RPMI-8226 leukemia; 2.65 µM with HCC-2998 colon. Further, the results for the TGI with BT-549 breast, in the experiment with MDA-MB-435 and with UACC-257 melanoma were 3.92 µM, 1.77 µM and 2.78 µM, respectively.
With `Oc1ccc2ccccc2c1N=Nc1ccc(Cl)cc1`, the TGI in the experiment with K-562 leukemia, in the experiment with OVCAR-8 ovarian, with NCI-H226 lung, in the experiment on M14 melanoma, in the experiment on RPMI-8226 leukemia and with BT-549 breast was greater than 100 µM throughout. Moreover, the TGI with MDA-MB-435 and with UACC-257 melanoma was greater than 100 µM in each case.
On to `CCOC(=O)c1ccccc1SC(C[N+](=O)[O-])c1ccccc1` (configuration not stated), for which the GI50 was 3.01 µM with K-562 leukemia; 10.5 µM with OVCAR-8 ovarian; 3.23 µM in the experiment on SF-539 CNS; 16.1 µM with NCI-H226 lung; 2010 nM in the experiment with M14 melanoma; 2440 nM with RPMI-8226 leukemia. The figures for the GI50 with HCC-2998 colon, in the experiment on BT-549 breast and with MDA-MB-435 were 1860 nM, 2310 nM and 2910 nM, respectively. Further, the TGI with K-562 leukemia amounted to 16 µM; in the experiment on OVCAR-8 ovarian, 22.5 µM; with SF-539 CNS it was 12 µM; with NCI-H226 lung, 44.5 µM; in the experiment on M14 melanoma, 4.43 µM; with RPMI-8226 leukemia, 5.53 µM. Also, the TGI with HCC-2998 colon worked out at 3.36 µM; in the experiment on BT-549 breast, 5.53 µM; with MDA-MB-435, 11.4 µM.
